Reference: PMC11926245, “Structural recognition and stabilization of tyrosine hydroxylase by the J-domain protein DNAJC12” (Nature Communications, 2025)

Columns and labels:
TH (TH-WT, hTH1) [1] = biological target: T1, TH (TH-WT, hTH1) (Homo sapiens, UniProt P07101); test: differential scanning fluorimetry (SYPRO Orange); assay type: binding; conditions: 0.23 µM TH tetramer, 9 µM DA, ferrous ammonium sulfate; stabilization
T1 construct: full-length wild-type (C-terminal residue 497), expressed in E. coli as HisMBP fusion from pETMBP1a/hTH1, tags cut with TEV protease

TH:DNAJC12 complex [2] = biological target: T2, TH:DNAJC12 complex (Homo sapiens, UniProt P07101); test: cryo-EM 3D reconstruction ([…] Å map); assay type: binding; conditions: Fe(III)-catecholate complex; map EMD-18289, no PDB model deposited; regulatory helix 39-58 density at active sites
T2 construct: both full-length wild-type, each expressed in E. coli as HisMBP fusion, tags cut with TEV protease; with DnaJ homolog subfamily C member 12

TH:DNAJC12 complex [3] = biological target: T2, TH:DNAJC12 complex; test: differential scanning fluorimetry (SYPRO Orange); assay type: binding; conditions: 0.23 µM TH:DNAJC12 complex, 9 µM DA, ferrous ammonium sulfate; stabilization
TH:DNAJC12 complex [4] = biological target: T2, TH:DNAJC12 complex; test: TH activity, L-Dopa quantified by HPLC with fluorescence detection; assay type: biochemical
TH (TH-WT, hTH1) [5] = biological target: T1, TH (TH-WT, hTH1); test: as above; assay type: biochemical

T2 sequence (P07101 1-497 isoform P07101-3): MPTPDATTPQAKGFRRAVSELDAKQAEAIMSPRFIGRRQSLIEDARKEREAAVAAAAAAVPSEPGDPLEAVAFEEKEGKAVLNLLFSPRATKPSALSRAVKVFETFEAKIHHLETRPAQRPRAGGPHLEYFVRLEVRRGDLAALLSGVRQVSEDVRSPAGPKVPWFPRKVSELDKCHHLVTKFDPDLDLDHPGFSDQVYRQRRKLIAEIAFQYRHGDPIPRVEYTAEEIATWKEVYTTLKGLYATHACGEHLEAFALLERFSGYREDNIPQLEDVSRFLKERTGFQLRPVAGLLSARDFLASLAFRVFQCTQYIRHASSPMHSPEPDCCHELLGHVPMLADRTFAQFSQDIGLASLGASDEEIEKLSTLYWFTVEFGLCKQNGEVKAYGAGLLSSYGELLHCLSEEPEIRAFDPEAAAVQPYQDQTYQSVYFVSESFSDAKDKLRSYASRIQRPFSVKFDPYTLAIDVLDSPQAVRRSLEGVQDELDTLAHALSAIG
T2 sequence (Q9UKB3 whole entry partner, the tested form may be a part): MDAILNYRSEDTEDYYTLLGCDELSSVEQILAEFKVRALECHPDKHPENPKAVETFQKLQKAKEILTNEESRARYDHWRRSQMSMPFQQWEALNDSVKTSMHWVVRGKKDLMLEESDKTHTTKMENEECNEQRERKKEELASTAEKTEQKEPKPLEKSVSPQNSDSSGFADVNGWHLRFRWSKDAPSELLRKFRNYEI
T1 sequence (P07101 1-497 isoform P07101-3): as the sequence (P07101 1-497 isoform P07101-3) above

IC50 (TH:DNAJC12 complex [4]): 0.356 ± 0.103 µM
IC50 (TH (TH-WT, hTH1) [5]): 0.363 ± 0.082 µM
Structure (SMILES): NCCc1ccc(O)c(O)c1 [dopamine]
Tm (TH (TH-WT, hTH1) [1]): adding equimolar amounts of DA (per TH subunit) increased the Tm of TH
cryo-EM 3D reconstruction (5.0 Å map) (TH:DNAJC12 complex [2]): 3D reconstruction of TH:DNAJC12 in the presence of the feedback inhibitor DA (TH(DA):DNAJC12)
Tm (TH:DNAJC12 complex [3]): we also observed a Tm increase for the TH:DNAJC12 complex in the presence of DA
